#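 Compound exposure: 48 hours, 5 concentrations, 96-well plates. GI50 = concentration required for 50% inhibition of growth.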 Activity calls are given as the source filed them. No stated cut-off is given here; in the data, active = GI50 up to about 1.1 µM and inactive = higher.
# Tests used:
# Experiment in all cases: DTP human tumour cell line panel, 48 h
# 786-0 = system: 786-0
# A549 = system: A549
# ACHN = system: ACHN
# BT-549 = system: BT-549
# CCRF-CEM = system: CCRF-CEM
# DU-145 = system: DU-145
# EKVX = system: EKVX
# HCT-116 = system: HCT-116
# HL-60 = system: HL-60
# HOP-92 = system: HOP-92
# HT-29 = system: HT-29
# Hs-578T = system: Hs-578T
# IGROV-1 = system: IGROV-1
# K562 = system: K562
# KM12 = system: KM12
# LOX IMVI = system: LOX IMVI
# M14 = system: M14
# MCF7 = system: MCF7
# MDA-MB-435 = system: MDA-MB-435
# MDA-N = system: MDA-N
# MOLT-4 = system: MOLT-4
# NCI-H226 = system: NCI-H226
# NCI-H23 = system: NCI-H23
# NCI-H460 = system: NCI-H460
# NCI-H522 = system: NCI-H522
# OVCAR-3 = system: OVCAR-3
# OVCAR-4 = system: OVCAR-4
# OVCAR-5 = system: OVCAR-5
# OVCAR-8 = system: OVCAR-8
# PC-3 = system: PC-3
# RXF 393 = system: RXF 393
# SF-268 = system: SF-268
# SF-295 = system: SF-295
# SF-539 = system: SF-539
# SK-OV-3 = system: SK-OV-3
# SNB-19 = system: SNB-19
# SNB-75 = system: SNB-75
# SR = system: SR
# SW-620 = system: SW-620
# TK-10 = system: TK-10
# U-251 = system: U-251
# UACC-257 = system: UACC-257
# UACC-62 = system: UACC-62
# UO-31 = system: UO-31
# COLO 205 = system: COLO 205
# HCC 2998 = system: HCC 2998
# HCT-15 = system: HCT-15
# HOP-62 = system: HOP-62
# MDA-MB-231 = system: MDA-MB-231
# NCI/ADR-RES = system: NCI/ADR-RES
# RPMI-8226 = system: RPMI-8226
# SK-MEL-28 = system: SK-MEL-28
# SK-MEL-5 = system: SK-MEL-5
# SN12C = system: SN12C
# T47D = system: T47D
# A498 = system: A498
# CAKI-1 = system: CAKI-1
# Malme-3M = system: Malme-3M
# SK-MEL-2 = system: SK-MEL-2
structure (smiles),measurement,setting,value
Cc1cc2cc3ccccc3cc2c(=O)[nH]1,GI50,786-0,> 10 µM (inactive)
same,GI50,A549,> 10 µM (inactive)
same,GI50,ACHN,> 10 µM (inactive)
same,GI50,BT-549,> 10 µM (inactive)
same,GI50,CCRF-CEM,> 10 µM (inactive)
same,GI50,DU-145,> 10 µM (inactive)
same,GI50,EKVX,> 10 µM (inactive)
same,GI50,HCT-116,> 10 µM (inactive)
same,GI50,HL-60,> 10 µM (inactive)
same,GI50,HOP-92,> 10 µM (inactive)
same,GI50,HT-29,> 10 µM (inactive)
same,GI50,Hs-578T,> 10 µM (inactive)
same,GI50,IGROV-1,> 10 µM (inactive)
same,GI50,K562,> 10 µM (inactive)
same,GI50,KM12,> 10 µM (inactive)
same,GI50,LOX IMVI,> 10 µM (inactive)
same,GI50,M14,> 10 µM (inactive)
same,GI50,MCF7,> 10 µM (inactive)
same,GI50,MDA-MB-435,> 10 µM (inactive)
same,GI50,MDA-N,> 10 µM (inactive)
same,GI50,MOLT-4,> 10 µM (inactive)
same,GI50,NCI-H226,> 10 µM (inactive)
same,GI50,NCI-H23,> 10 µM (inactive)
same,GI50,NCI-H460,> 10 µM (inactive)
same,GI50,NCI-H522,> 10 µM (inactive)
same,GI50,OVCAR-3,> 10 µM (inactive)
same,GI50,OVCAR-4,> 10 µM (inactive)
same,GI50,OVCAR-5,> 10 µM (inactive)
same,GI50,OVCAR-8,> 10 µM (inactive)
same,GI50,PC-3,> 10 µM (inactive)
same,GI50,RXF 393,> 10 µM (inactive)
same,GI50,SF-268,> 10 µM (inactive)
same,GI50,SF-295,> 10 µM (inactive)
same,GI50,SF-539,> 10 µM (inactive)
same,GI50,SK-OV-3,> 10 µM (inactive)
same,GI50,SNB-19,> 10 µM (inactive)
same,GI50,SNB-75,> 10 µM (inactive)
same,GI50,SR,> 10 µM (inactive)
same,GI50,SW-620,> 10 µM (inactive)
same,GI50,TK-10,> 10 µM (inactive)
same,GI50,U-251,> 10 µM (inactive)
same,GI50,UACC-257,> 10 µM (inactive)
same,GI50,UACC-62,> 10 µM (inactive)
same,GI50,UO-31,> 10 µM (inactive)
COc1ccc(-c2nc(-c3cnccn3)n(C3OC(CO)C(O)C(O)C3O)n2)cc1 (stereo not drawn),GI50,786-0,> 100 µM (inactive)
same,GI50,A549,> 100 µM (inactive)
same,GI50,BT-549,> 100 µM (inactive)
same,GI50,CCRF-CEM,> 100 µM (inactive)
same,GI50,COLO 205,> 100 µM (inactive)
same,GI50,DU-145,> 100 µM (inactive)
same,GI50,EKVX,> 100 µM (inactive)
same,GI50,HCC 2998,> 100 µM (inactive)
same,GI50,HCT-116,> 100 µM (inactive)
same,GI50,HCT-15,> 100 µM
same,GI50,HL-60,> 100 µM (inactive)
same,GI50,HOP-62,> 100 µM (inactive)
same,GI50,HOP-92,> 100 µM (inactive)
same,GI50,HT-29,> 100 µM (inactive)
same,GI50,IGROV-1,> 100 µM (inactive)
same,GI50,K562,> 100 µM (inactive)
same,GI50,KM12,> 100 µM (inactive)
same,GI50,LOX IMVI,> 100 µM (inactive)
same,GI50,M14,> 100 µM (inactive)
same,GI50,MCF7,> 100 µM (inactive)
same,GI50,MDA-MB-231,> 100 µM (inactive)
same,GI50,MDA-MB-435,> 100 µM (inactive)
same,GI50,MDA-N,> 100 µM (inactive)
same,GI50,MOLT-4,> 100 µM (inactive)
same,GI50,NCI-H23,> 100 µM (inactive)
same,GI50,NCI-H460,> 100 µM (inactive)
same,GI50,NCI-H522,> 100 µM (inactive)
same,GI50,NCI/ADR-RES,> 100 µM (inactive)
same,GI50,OVCAR-3,> 100 µM (inactive)
same,GI50,OVCAR-4,> 100 µM (inactive)
same,GI50,OVCAR-5,> 100 µM (inactive)
same,GI50,OVCAR-8,> 100 µM (inactive)
same,GI50,PC-3,> 100 µM (inactive)
same,GI50,RPMI-8226,> 100 µM (inactive)
same,GI50,RXF 393,> 100 µM (inactive)
same,GI50,SF-268,> 100 µM (inactive)
same,GI50,SF-295,> 100 µM (inactive)
same,GI50,SF-539,> 100 µM (inactive)
same,GI50,SK-MEL-28,> 100 µM (inactive)
same,GI50,SK-MEL-5,> 100 µM (inactive)
same,GI50,SK-OV-3,> 100 µM (inactive)
same,GI50,SN12C,> 100 µM (inactive)
same,GI50,SNB-19,> 100 µM (inactive)
same,GI50,SNB-75,> 100 µM (inactive)
same,GI50,SR,> 100 µM (inactive)
same,GI50,SW-620,> 100 µM (inactive)
same,GI50,T47D,> 100 µM (inactive)
same,GI50,TK-10,> 100 µM (inactive)
same,GI50,U-251,> 100 µM (inactive)
same,GI50,UACC-257,> 100 µM (inactive)
same,GI50,UACC-62,> 100 µM (inactive)
same,GI50,UO-31,> 100 µM (inactive)
Cc1ccc(S(=O)(=O)[C@@H](Cl)[C@H]2N=C(Cl)NN=C2c2ccccc2)cc1,GI50,786-0,26.4 µM (inactive)
same,GI50,A498,15.5 µM (inactive)
same,GI50,A549,34.1 µM (inactive)
same,GI50,ACHN,33.7 µM (inactive)
same,GI50,BT-549,23.9 µM (inactive)
same,GI50,CAKI-1,41.9 µM (inactive)
same,GI50,CCRF-CEM,20.3 µM (inactive)
same,GI50,COLO 205,26.9 µM (inactive)
same,GI50,DU-145,23.2 µM (inactive)
same,GI50,EKVX,37.1 µM (inactive)
same,GI50,HCC 2998,33.8 µM (inactive)
same,GI50,HCT-116,25.1 µM (inactive)
same,GI50,HCT-15,22.2 µM
same,GI50,HOP-62,20 µM (inactive)
same,GI50,HOP-92,23 µM (inactive)
same,GI50,HT-29,33.5 µM (inactive)
same,GI50,IGROV-1,21.8 µM (inactive)
same,GI50,K562,29.5 µM (inactive)
same,GI50,KM12,22.6 µM (inactive)
same,GI50,LOX IMVI,19.1 µM (inactive)
same,GI50,M14,21.2 µM (inactive)
same,GI50,MCF7,26.9 µM (inactive)
same,GI50,MDA-MB-231,20.1 µM (inactive)
same,GI50,MDA-MB-435,22.1 µM (inactive)
same,GI50,MDA-N,26.1 µM (inactive)
same,GI50,MOLT-4,20.6 µM (inactive)
same,GI50,Malme-3M,20.7 µM (inactive)
same,GI50,NCI-H226,26.8 µM (inactive)
same,GI50,NCI-H23,20.6 µM (inactive)
same,GI50,NCI-H460,37.1 µM (inactive)
same,GI50,NCI-H522,15.9 µM (inactive)
same,GI50,NCI/ADR-RES,21.4 µM (inactive)
same,GI50,OVCAR-3,14.7 µM (inactive)
same,GI50,OVCAR-4,13.9 µM (inactive)
same,GI50,OVCAR-5,85.9 µM (inactive)
same,GI50,OVCAR-8,21.1 µM (inactive)
same,GI50,PC-3,16.7 µM (inactive)
same,GI50,RPMI-8226,27.6 µM (inactive)
same,GI50,RXF 393,18.6 µM (inactive)
same,GI50,SF-268,18.3 µM (inactive)
same,GI50,SF-295,41.4 µM (inactive)
same,GI50,SF-539,30.1 µM (inactive)
same,GI50,SK-MEL-28,19.4 µM (inactive)
same,GI50,SK-MEL-2,14.8 µM (inactive)
same,GI50,SK-MEL-5,15.4 µM (inactive)
same,GI50,SK-OV-3,32.6 µM (inactive)
same,GI50,SN12C,21.7 µM (inactive)
same,GI50,SNB-19,37.8 µM (inactive)
same,GI50,SNB-75,27.9 µM (inactive)
same,GI50,SR,27.2 µM (inactive)
same,GI50,SW-620,17.2 µM (inactive)
same,GI50,T47D,28.8 µM (inactive)
same,GI50,TK-10,41.8 µM (inactive)
same,GI50,U-251,21.5 µM (inactive)
same,GI50,UACC-257,20.6 µM (inactive)
same,GI50,UACC-62,15.1 µM (inactive)
same,GI50,UO-31,18.1 µM (inactive)

# From ChEMBL document CHEMBL1201862, “PubChem BioAssay data set” (2004)
